Measurements from patent publication EP4144350B1, “TREATMENT OR PREVENTION OF VASCULAR MALFORMATION” (Universitätsmedizin Greifswald, priority 2021, dated 2023).

Assays:
Type in all cases: cell-based, human
[1] = tested on: CCM3^-/- CI-huVECs in co-culture with CCM3^+/+ CI-huVECs; experiment: Spike-in co-culture assay / apoptosis compound library screening: CCM3 knockout allele frequency by amplicon deep sequencing; conditions: for Knockout allele frequencies: 10 µM of each compound, six days, added 5 h and 3 days after seeding, DMSO-treated co-culture controls 33.5 %
Procedure: Clonally expanded CI-huVEC lines with biallelic loss-of-function variants in the first coding exon of CCM3 have been described before or were established according to a published CRISPR/Cas9 genome editing protocol. Blood outgrowth endothelial cells (BOECs) were cultured in EGM-2 medium (Lonza, Basel, Switzerland) supplemented with 18 % FCS. With the approval of the local ethics committee (University Medicine Greifswald, Germany; No.: BB 047/14a), CCM1^-/- BOECs had been established previously from CCM1^+/- BOECs of a CCM1 mutation carrier with CRISPR/Cas9 genome editing. Mutant and wild-type ECs were co-cultured in 96-well plates under standard culture conditions with the indicated mutant-to-wild-type ratios. 2500 cells were seeded per well.
An apoptosis compound library with 189 small molecules that target apoptosis, survival and proliferation was used in a high throughput screening approach (HY-L003[HY-LD-000001651]; MedChem Express, Monmouth Junction, NJ, USA). Co-cultures were treated with 10 µM of each substrate for six days. Compounds were added 5 h and 3 days after cell seeding.
NSC59984 (IUPAC: (2E)-1-(4-Methyl-1-piperazinyl)-3-(5-nitro-2-furyl)-2-propen-1-one, HY19726, MedChem Express), was used for individual experiments with the indicated concentrations.
The fraction of mutant alleles in co-culture were analysed by amplicon deep sequencing or T7EI cleavage assay. In brief, genomic target regions were first amplified by PCR. For T7E1 cleavage assays, heteroduplexes were formed and digested with T7EI enzyme (New England Biolabs, Frankfurt am Main, Germany). Cleavage products were visualised by gel electrophoresis and analysed with the Image Lab software (v6.0, Bio-Rad, Hercules, CA, USA). For NGS analysis, sequencing adapters and individual barcodes were introduced in a second round of PCR [7]. Sequencing libraries were pooled and sequenced on a MiSeq instrument with 2 x 150 cycles (Illumina, San Diego, CA, USA). The data were analysed with the SeqNext software (JSI Medical Systems, Ettenheim, Germany).

CI-huVECs = experiment: Bright-field microscopy of EC morphology after compound treatment; conditions: library screening follow-up (Fig. 14)
[2] = tested on: CCM3^+/+ and CCM3^-/- CI-huVECs; experiment: Cell viability after compound treatment; conditions: for Cell viability differences between CCM3^+/+ and CCM3^-/- CI-huVECs: 72 h after treatment (Fig. 15)
caspase-3 = experiment: Caspase-3 activity assay
Procedure: The proliferation rate of mutant and wild-type ECs in monoculture was quantified with the CyQuant® Cell Proliferation Assay Kit (C7026, Thermo Fisher Scientific). To discriminate the proliferation rates of CCM3^+/+ and CCM3^-/- CI-huVEC in co-culture, the CyQuant® Cell Proliferation Assay results were combined with mutant allele frequencies that had been determined by amplicon deep sequencing. To analyse their sensitivity to apoptosis, mutant and wild-type ECs were seeded in 96-well plates with 15.000 cells per well, and treated with staurosporine (S440, Sigma-Aldrich, St. Louis, MO, USA) 24 h later. The Caspase-3 DEVD-R110 Fluorometric HTS Assay Kit (30009, Biotium, Fremont, CA, USA), the Cell Meter™ Caspase 8 Activity Apoptosis Assay Kit (22798, AAT Bioquest, Sunnyvale, CA, USA), and the Cell Meter™ Caspase 9 Activity Apoptosis Assay Kit (22799, AAT Bioquest) were used following the manufacturer's instructions.

SMILES	Knockout allele frequencies [1]	EC morphology / endothelial phenotype (CI-huVECs)	Cell viability differences between CCM3^+/+ and CCM3^-/- CI-huVECs [2]	Cell viability ([2]; Fig. 15)	Apoptosis / caspase-3 activation (caspase-3; Fig. 16)	Reversal of the NSC59984 (10 µM) effect on clonal expansion of CCM3^-/- cells ([1]; UC2288 1 to 10 µM together with NSC59984 10 µM (Fig. 28))	Caspase-3 activities (caspase-3; treatment for 24 h, CCM3^+/+ and CCM3^-/- CI-huVECs (Fig. 16))
CC(C)S(=O)(=O)c1ccc2nccc(Nc3ccc4scnc4c3)c2c1 [GSK-872]	65.1%	more compact EC morphology	increased the viability of CCM3^-/- CI-huVECs	increased cell viability at low concentrations	induced moderate caspase-3 activation	–	–
O=C(Nc1ccc(Cl)c(C(F)(F)F)c1)NC1CCC(Oc2ccc(C(F)(F)F)cn2)CC1 (stereo not shown) [UC2288, reference compound]	–	–	–	–	–	could not be reversed	–
C=C1C(=O)O[C@@H]2C[C@@]3(C)CCCC(=C)[C@@H]3C[C@H]12 [isoalantolactone, reference compound]	7.7%	induced an abnormal endothelial phenotype and significant cell death	No cell viability differences	–	–	–	did not increase caspase-3 activities
